Like-named read-outs stand apart in the source and are kept apart here.

The target in the assay is T1, human chemokine receptor CCR1 (Homo sapiens, UniProt P32246).
T1 construct: expressed in transfected cells; host or cells: HEK293T, transient
T1 sequence (P32246 1-355): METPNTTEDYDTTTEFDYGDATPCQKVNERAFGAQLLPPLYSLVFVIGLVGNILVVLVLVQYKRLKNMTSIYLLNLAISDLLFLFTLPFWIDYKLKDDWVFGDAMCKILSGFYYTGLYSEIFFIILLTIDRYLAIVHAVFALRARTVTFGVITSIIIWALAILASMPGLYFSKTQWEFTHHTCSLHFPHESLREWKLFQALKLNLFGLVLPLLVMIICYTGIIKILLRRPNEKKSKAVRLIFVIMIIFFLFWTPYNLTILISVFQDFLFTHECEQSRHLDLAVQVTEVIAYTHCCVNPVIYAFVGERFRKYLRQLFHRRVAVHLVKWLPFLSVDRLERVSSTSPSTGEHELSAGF
Nature of the assay: Cellular NanoBiT miniGi recruitment assay. It is filed as cell-based. The conditions noted are these: in the presence of CCL5 (3 nM). The method, then:
Technologies) for 20 min.
Cellular NanoBiT miniGi recruitment assay s: Chemokine-induced Gi recruitment to the chemokine receptor CCR1 was monitored using a nanoluciferase complementation -based assay (NanoBiT, Promega). 20 5 x 10^6 HEK293T cells were plated in 10 cm dishes and cultured for 24 h before transfection with vectors encoding for the human chemokine receptor CCR1 C-terminally fused with SmBiT and miniGi (mG, engineered GTPase domain of Gα subunit) N-terminally fused with LgBiT. 24 h after transfection cells were harvested, distributed into white 96 -well plates (5 × 10^4 cells per well) and incubated for 1 h at 37 °C with compound 23 at concentrations ranging from 10 nM to 100 µM. The endogenous chemokine ligand CCL5 (3 nM, for CCR1) was then added, and luminescence generated upon nanoluciferase complementation in the presence of coelenterazine H was measured with a Mithras LB940 luminometer (Berthold Technologies) for 20 min. […]
Finally, the top 5% of the identified hits were subsequently docked to a homology model of CCR1 (vide infra). After visual examination of the obtained binding modes 24 hit compounds were identified for further investigation .
Molecular docking: For the docking studies in the course of our virtual screening campaign, the CCR1 protein was […]
27, 28 CCR1 structure was optimized using the Quickprep and structure preparation wizard in MOE 24 using CHARMM27 forcefield. The protein was saved in mol2 format and loaded in GOLD.25, 26 The amino acids defining the IABS were listed in a text file to define the docking cavity. 50 GA runs were performed for docking CCR2-RA-[R] (4-[R]) and SN_12 (43), with the generated solutions clustered based on their RMSD with the threshold set to 0.75 Å using the complete linkage method. Docking runs were performed using ChemScore. […]

Regarding `O=C(C1=C(O)C(=O)N(CCc2ccc(O)cc2)C1c1ccc(F)cc1)c1ccccc1` (racemic) [compound 23], the IC50 is 68.9 µM (read-out: IC50, miniGi recruitment) and 67.6 µM (read-out: pIC50, miniGi recruitment (converted)).

(Values after paper PMC11249626, “Fluorophore-Labeled Pyrrolones Targeting the Intracellular Allosteric Binding Site of the Chemokine Receptor CCR1” (ACS Pharmacology & Translational Science, 2024).)
